Assay results reported in patent EP0845210A1, “New herbicidal compositions” (RHONE-POULENC AGRICULTURE LTD., priority 1994, dated 1996).

Assays:
Type in all cases: in vivo
[1] = system: Abutilon theophrasti; assay: Procedure B: pre-emergence field trial (research farm in Brazil), visual assessment 36 or 40 days from sowing
Description: (§1) The experiments were carried out pre-emergence of the weed species at • (i) a research farm in Brazil with Compounds B and C (each formulated as a wettable powder) and metolachlor, (formulated as a suspension concentrate); and • (ii) in research farms in the Mid West corn belt of the United States with compound D (formulated as a wettable powder) and metolachlor (formulated as a suspension concentrate).
(§2) A solution of the two active ingredients (a.i.) was mixed for one hour and applied at a spray volume of 231 litres/hectare to a 3 metre by 5 metre test plot comprising the weed species which were sown 2 days earlier. 3 replicates were performed. A control plot was sprayed with a solution not containing test compound. Visual assessment of phytotoxicity was made after 36 or 40 days from sowing each weed species based on a comparison with the control plot.
(§3) The tables below show the observed percentage control of the weed species by each combination, with the figure in brackets representing the predicted value using the Limpel formula. The dose rates are in grammes per hectare. Table E1

[2] = system: Amaranthus retroflexus; assay: Procedure A: pre-emergence glasshouse pot test, growth reduction assessed two weeks after treatment
Excerpt: (§4) Seed of the various species of broad-leaf or grass weeds were sown in unsterilised clay loam soil in 7 centimetre by 7 centimetre plastic plant pots. The pots were watered and allowed to drain. The soil surface was then sprayed with ranges of concentrations of either the individual herbicide or mixtures of two herbicides in various proportions, dissolved in a 50:50 by volume solution of acetone and water, using a track sprayer set to deliver the equivalent of 290 l/ha. All herbicides were used as unformulated technical materials except dimethenamid, which was used as the commercial formulation "Frontiere" (trade mark), a flowable containing 900g/l active ingredient; and alachlor, which was used as "Lasso" (trade mark), an emulsifiable concentrate formulation containing 480g/l active ingredient.
(§5) Treated pots were placed at random in four replicate blocks per treatment for each plant species. The pots were held, in a glasshouse, standing on moist capillary matting, under lights and with overhead watering twice daily.
(§6) Two weeks after treatment the percent reduction in plant growth, compared to an untreated control, was assessed.
(§7) Mean percent reduction in plant growth was calculated for each treatment. Dose/mean response was plotted on Log concentration/Probability graph paper, and lines fitted by eye. For herbicide mixtures a dose/response line for the first herbicide was drawn for each dose rate of the second herbicide and a dose/response line for the second herbicide was drawn for each dose rate of the first herbicide. The doses representing a 90% reduction in plant growth (LD90's) were read from these lines and plotted on graphs whose axes were dose rates of the two herbicides. The line joining these points is an Isobole i.e. a line joining points (mixtures) of equal activity, as described by P.M.L. Tammes, Neth. J. Plant Path. 70 (1964) : 73-80. A line was also drawn joining the LD90's of the individual components of the mixture. This line represents the theoretical isobole if the effect of the two components is additive i.e. there is no interaction between them. Isoboles falling below this line indicate synergy between the components while lines lying above it indicate antagonism.
(§8) In the tables that follow 'dose' represents the dose rate in grammes per hectare of the active ingredient used; and the figures for the weed control are percentages reduction in growth when compared with the untreated controls.

[3] = system: Setaria viridis; assay: as above
Excerpt: as §4, §5, §6, §7, §8

[4] = system: Amaranthus retroflexus; assay: Procedure B: pre-emergence field trial (Mid West corn belt research farms), visual assessment 36 or 40 days from sowing
Description: as §1, §2, §3

[5] = system: Setaria faberii; assay: as above
Description: as §1, §2, §3

[6] = system: Abutilon theophrasti; assay: Procedure D: pre-emergence field trial (Volga, Brookings), visual assessment about 26 days after treatment
Description: (§9) The following experiments were carried out pre-emergence of the weed species. Compound A, formulated as a wettable dispersible granule as described in Example 1 herebelow (750g per kilogram) and each acetochlor (used as the commercially available formulation "Harness" (trade mark), an emulsifiable concentrate containing 960g of acetochlor per kilogram, and which also contains the safening agent flurazole, metolachlor (used as the commercially available formulation "Duelor" (trade mark), an emulsifiable concentrate emulsifiable concentrate containing 960g of metolachlor per kilogram), alachlor (used as the commercially available formulation "Lasso" (trade mark), an emulsifiable concentrate containing 480g of alachlor per kilogram) and dimethenamid (used as the commercially available formulation "Frontiere" (trade mark), a flowable containing 900g/l active ingerident) were dissolved in water and sprayed at a volume rate of 187 litres/hectare on various test plots (10 square meters in area) either alone or in mixtures. The soil was a clay-loam, with a pH of 7, the experiments being conducted in June in Volga, Brookings, U.S.A. The various weed and crop species were drill sown and the various compositions were applied on the same day after drilling. Three replicates were performed and the efficacy of the various mixtures were determined by visual assessment of the percentage phytotoxicity in comparison with an untreated control. Assessment was made about 26 days after treatment. In the Tables which follow the dose is expressed in grammes per hectare and the figures in brackets represent the expected results according to the Colby formula.

[7] = system: Helianthus annuus; assay: as above
Description: as §9

[8] = system: Panicum miliaceum; assay: as above
Description: as §9

[9] = system: maize (Zea mays); assay: Procedure D: pre-emergence field trial (Volga, Brookings), crop phytotoxicity about 26 days after treatment
Description: as §9

[10] = system: Digitaria sanguinalis; assay: Procedure A: pre-emergence glasshouse pot test, growth reduction assessed two weeks after treatment
Excerpt: as §4, §5, §6, §7, §8

[11] = system: Echinochloa crus-galli; assay: as above
Excerpt: as §4, §5, §6, §7, §8

[12] = metolachlor 480 g/ha alone, 1st Research Farm
[13] = metolachlor 480 g/ha alone, 2nd Research Farm
[14] = metolachlor 480 g/ha alone, 3rd Research Farm
[15] = acetochlor 480 g/ha alone (Harness, contains safener flurazole)
[16] = D 37.5 g/ha alone, 1st Research Farm
[17] = D 37.5 g/ha alone, 2nd Research Farm
[18] = D 37.5 g/ha alone, 3rd Research Farm

CS(=O)(=O)c1ccc(C(=O)c2cnoc2C2CC2)c(Cl)c1 [Compound C, 4-(2-chloro-4-methylsulphonyl)benzoyl-5-cyclopropylisoxazole]
observed percentage control of the weed species ([1]; C 50 g/ha alone): 73%

CCc1cccc(C)c1N(C(=O)CCl)C(C)COC (stereo not drawn) [Metolachlor, 2-chloro-6'-ethyl-N-(2-methoxy-1-methylethyl)acet-o-toluidide, reference compound]
percent reduction in plant growth ([2]; metolachlor 31.25 g/ha alone): 46.25%
percent reduction in plant growth ([2]; metolachlor 62.5 g/ha alone): 53.75%
percent reduction in plant growth ([2]; metolachlor 125 g/ha alone): 35%
percent reduction in plant growth ([2]; metolachlor 250 g/ha alone): 85%
percent reduction in plant growth ([2]; metolachlor 500 g/ha alone): 95%
percent reduction in plant growth ([3]; metolachlor 2 g/ha alone): 5%
percent reduction in plant growth ([3]; metolachlor 4 g/ha alone): 22.5%
percent reduction in plant growth ([3]; metolachlor 8 g/ha alone): 38.75%
percent reduction in plant growth ([3]; metolachlor 16 g/ha alone): 61.25%
percent reduction in plant growth ([3]; metolachlor 32 g/ha alone): 87.5%
percent reduction in plant growth ([3]; metolachlor 64 g/ha alone): 98%
observed percentage control of the weed species ([1]; metolachlor 1000 g/ha alone): 0%
observed percentage control of the weed species [4, 12]: 38%
observed percentage control of the weed species [4, 13]: 78%
observed percentage control of the weed species [4, 14]: 91%
observed percentage control of the weed species [5, 12]: 91%
observed percentage control of the weed species [5, 13]: 93%
observed percentage control of the weed species [5, 14]: 84%
percentage phytotoxicity ([6]; metolachlor 480 g/ha alone): 10%
percentage phytotoxicity ([7]; metolachlor 480 g/ha alone): 3%
percentage phytotoxicity ([8]; metolachlor 480 g/ha alone): 52%
percentage phytotoxicity ([9]; metolachlor 480 g/ha alone): 0%

CCOCN(C(=O)CCl)c1c(C)cccc1CC [Acetochlor, 2-chloro-N-ethoxymethyl-6'-ethylacet-o-toluidide, reference compound]
percent reduction in plant growth ([10]; acetochlor 3.75 g/ha alone): 0%
percent reduction in plant growth ([10]; acetochlor 7.5 g/ha alone): 0%
percent reduction in plant growth ([10]; acetochlor 15 g/ha alone): 7.5%
percent reduction in plant growth ([10]; acetochlor 30 g/ha alone): 32.5%
percent reduction in plant growth ([10]; acetochlor 60 g/ha alone): 85%
percent reduction in plant growth ([10]; acetochlor 120 g/ha alone): 100%
percent reduction in plant growth ([10]; acetochlor 240 g/ha alone): 98.75%
percent reduction in plant growth ([11]; acetochlor 3.75 g/ha alone): 12.5%
percent reduction in plant growth ([11]; acetochlor 7.5 g/ha alone): 36.25%
percent reduction in plant growth ([11]; acetochlor 15 g/ha alone): 55%
percent reduction in plant growth ([11]; acetochlor 30 g/ha alone): 88.75%
percent reduction in plant growth ([11]; acetochlor 60 g/ha alone): 98.75%
percent reduction in plant growth ([11]; acetochlor 120 g/ha alone): 98.75%
percent reduction in plant growth ([11]; acetochlor 240 g/ha alone): 100%
percentage phytotoxicity [6, 15]: 35%
percentage phytotoxicity [7, 15]: 10%
percentage phytotoxicity [8, 15]: 72%
percentage phytotoxicity [9, 15]: 0%

CS(=O)(=O)c1cc(Cl)ccc1C(=O)c1cnoc1C1CC1 [Compound D, 4-(4-chlor-2-methylsulphonyl)benzoyl-5-cyclopropylisoxazole]
observed percentage control of the weed species [4, 16]: 38%
observed percentage control of the weed species [4, 17]: 10%
observed percentage control of the weed species [4, 18]: 10%
observed percentage control of the weed species [5, 16]: 22%
observed percentage control of the weed species [5, 17]: 62%
observed percentage control of the weed species [5, 18]: 32%

COCC(C)N(C(=O)CCl)c1c(C)csc1C (stereo not drawn) [Dimethenamid, 2-chloro-N-(2,4-dimethyl-3-thienyl)-N-(2-methoxy-1-methyl)ethyl-acetamide, reference compound]
percent reduction in plant growth ([10]; dimethenamid 4 g/ha alone): 16.25%
percent reduction in plant growth ([10]; dimethenamid 8 g/ha alone): 15%
percent reduction in plant growth ([10]; dimethenamid 16 g/ha alone): 77.5%
percent reduction in plant growth ([10]; dimethenamid 32 g/ha alone): 89.75%
percent reduction in plant growth ([10]; dimethenamid 64 g/ha alone): 98.25%
percent reduction in plant growth ([10]; dimethenamid 128 g/ha alone): 92.5%
percent reduction in plant growth ([10]; dimethenamid 256 g/ha alone): 98.75%
percent reduction in plant growth ([11]; dimethenamid 4 g/ha alone): 17.5%
percent reduction in plant growth ([11]; dimethenamid 8 g/ha alone): 38.75%
percent reduction in plant growth ([11]; dimethenamid 16 g/ha alone): 81.25%
percent reduction in plant growth ([11]; dimethenamid 32 g/ha alone): 93.5%
percent reduction in plant growth ([11]; dimethenamid 64 g/ha alone): 97.5%
percent reduction in plant growth ([11]; dimethenamid 128 g/ha alone): 100%
percentage phytotoxicity ([6]; dimethenamid 200 g/ha alone): 12%
percentage phytotoxicity ([7]; dimethenamid 200 g/ha alone): 3%
percentage phytotoxicity ([8]; dimethenamid 200 g/ha alone): 27%
percentage phytotoxicity ([9]; dimethenamid 200 g/ha alone): 0%

CS(=O)(=O)c1ccc(C(=O)c2cnoc2C2CC2)c(C(F)(F)F)c1 [Compound B, 5-cyclopropyl-4-(4-methylsulphonyl-2-trifluoromethyl)benzoylisoxazole]
observed percentage control of the weed species ([1]; B 50 g/ha alone): 75%

CCc1cccc(CC)c1N(COC)C(=O)CCl [Alachlor, 2-chloro-2',6'-diethyl-N-methoxymethylacetanilide, reference compound]
percent reduction in plant growth ([10]; alachlor 4 g/ha alone): 0%
percent reduction in plant growth ([10]; alachlor 8 g/ha alone): 25%
percent reduction in plant growth ([10]; alachlor 16 g/ha alone): 6.25%
percent reduction in plant growth ([10]; alachlor 32 g/ha alone): 37.5%
percent reduction in plant growth ([10]; alachlor 64 g/ha alone): 75%
percent reduction in plant growth ([10]; alachlor 128 g/ha alone): 95%
percent reduction in plant growth ([11]; alachlor 4 g/ha alone): 18.75%
percent reduction in plant growth ([11]; alachlor 8 g/ha alone): 5%
percent reduction in plant growth ([11]; alachlor 16 g/ha alone): 12.5%
percent reduction in plant growth ([11]; alachlor 32 g/ha alone): 46.25%
percent reduction in plant growth ([11]; alachlor 64 g/ha alone): 91.25%
percent reduction in plant growth ([11]; alachlor 128 g/ha alone): 98.75%
percentage phytotoxicity ([6]; alachlor 480 g/ha alone): 20%
percentage phytotoxicity ([7]; alachlor 480 g/ha alone): 3%
percentage phytotoxicity ([8]; alachlor 480 g/ha alone): 53%
percentage phytotoxicity ([9]; alachlor 480 g/ha alone): 0%
